Ten compounds from US11485737B2, “Diaryl substituted 5,5-fused ring compounds as C5aR inhibitors” (CHEMOCENTRYX, INC., priority 2017, dated 2022) can be followed below.

Bounds are passed on as bounds.

The target in the assay is T1, C5aR (Homo sapiens, UniProt P21730).
T1 construct: U937 cells are a monocytic cell line which express C5aR; host or cells: U937 cells (cAMP-treated overnight)
T1 sequence (P21730 1-350): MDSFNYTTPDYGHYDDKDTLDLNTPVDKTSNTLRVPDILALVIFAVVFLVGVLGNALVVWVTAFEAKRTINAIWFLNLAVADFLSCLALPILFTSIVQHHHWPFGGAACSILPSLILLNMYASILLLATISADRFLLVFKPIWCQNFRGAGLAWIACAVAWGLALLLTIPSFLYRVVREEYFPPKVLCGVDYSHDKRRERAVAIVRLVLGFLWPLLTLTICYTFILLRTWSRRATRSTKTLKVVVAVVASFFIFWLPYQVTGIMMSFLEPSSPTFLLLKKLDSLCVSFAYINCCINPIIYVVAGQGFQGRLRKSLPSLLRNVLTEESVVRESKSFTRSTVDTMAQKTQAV
As to the kind of experiment: Chemotaxis assay using U937 cells (C5a-induced migration). As to conditions: chemotaxis (migration) of U937 cells towards C5a; read-out: Mig IC50. The assay is classed as cell-based. On the procedure:
U937 cells are a monocytic cell line which express C5aR, and are available from ATCC (VA). These cells were cultured as a suspension in RPMI-1640 medium supplemented with 2 mM L-glutamine, 1.5 g/L sodium bicarbonate, 4.5 g/L glucose, 10 mM HEPES, 1 mM sodium pyruvate, and 10% FBS. Cells were grown under 5% CO2/95% air, 100% humidity at 37° C. and subcultured twice weekly at 1:6 (cells were cultured at a density range of 1×10^5 to 2×10^6 cells/mL) and harvested at 1×10^6 cells/mL. Prior to assay, cells are treated overnight with 0.5 mM of cyclic AMP (Sigma, OH) and washed once prior to use. cAMP treated U937 cells can be used in C5aR ligand binding and functional assays.
Optionally, compounds may be further assayed for their ability to inhibit chemotaxis in cells. Chemotaxis assays are performed using 5 μm pore polycarbonate, polyvinylpyrrolidone-coated filters in 96-well chemotaxis chambers (Neuroprobe; Gaithersburg, Md.) using chemotaxis buffer (Hank's balanced salt solution (HBSS) and 1% FBS). C5aR ligands (i.e., C5a, R&D Systems; Minneapolis, Minn.) are use to evaluate compound mediated inhibition of C5aR mediated migration. Other chemokines (i.e., SDF-1α; R&D Systems; Minneapolis, Minn.) are used as specificity controls. The lower chamber is loaded with 29 μl of chemokine (i.e., 0.03 nM C5a) and varying amounts of compound; the top chamber contains 100,000 U937 or neutrophil cells in 20 μl. The chambers are incubated 1.5 hours at 37° C., and the number of cells in the lower chamber quantified either by direct cell counts in five high powered fields per well or by the CyQuant assay (Molecular Probes), a fluorescent dye method that measures nucleic acid content and microscopic observation.
The compounds in Table 1, below, were prepared using the methods described above. Characterization data is provided for each compound listed. Activity is provided as follows for the chemotaxis assay using U937 cells as described herein (Example 7): +, 500 nM<IC50; ++, 50 nM<IC50<500 nM; +++, 5 nM<IC50<50 nM; and ++++, IC50<5 nM.
For orientation: IC50 means the concentration that gives 50% inhibition. With `Cc1cccc(C)c1-n1nc2c(c1-c1ccc(N)cc1)CN(c1ccccc1C(C)C)C2` [Compound 1.046], the IC50 lay within 50 to 500 nM.
Take `Cc1ccc(C(C)(C)C)cc1N1Cc2nn(-c3c(C)cccc3C)c(-c3ccc(C(N)=O)cc3)c2C1` [Compound 1.047]: the IC50 was less than 5 nM.
As for `Cc1ccc(C(C)(C)C)cc1N1Cc2nn(-c3c(C)cccc3C)c(-c3ccc(C(C)(C)O)cc3)c2C1` [Compound 1.048], the IC50 was 50 to 500 nM.
For `Cc1ccc(C(C)(C)C)cc1N1Cc2nn(-c3c(C)cccc3C)c(-c3ccc(NC(N)=O)cc3)c2C1` [Compound 1.049], the IC50 was 50 to 500 nM.
The result for `CNc1ccc(-c2c3c(nn2-c2c(C)cccc2C)CN(c2cc(C(C)(C)C)ccc2C)C3)cc1` [Compound 1.050] reads more than 500 nM.
As for `Cc1ccc(C(C)(C)C)cc1N1Cc2nn(-c3c(C)cccc3C)c(-c3ccc(N)cc3)c2C1` [Compound 1.051], the IC50 is less than 5 nM.
Consider `COc1cccc(C)c1-n1nc2c(c1-c1ccc(NC(N)=O)cc1)CN(c1cc(C(C)(C)C)ccc1C)C2` [Compound 1.052], for which the IC50 was more than 500 nM.
As to `CCCOc1cccc(C)c1-n1nc2c(c1-c1ccc(N)cc1)CN(c1cc(C(C)(C)C)ccc1C)C2` [Compound 1.053], the IC50 was 5 to 50 nM.
Turning to `CCOc1cccc(C)c1-n1nc2c(c1-c1ccc(N)cc1)CN(c1cc(C(C)(C)C)ccc1C)C2` [Compound 1.054], the IC50 fell in the range of 5 to 50 nM.
Then `COc1cccc(C)c1-n1nc2c(c1-c1ccc(N)cc1)CN(c1cc(C(C)(C)C)ccc1C)C2` [Compound 1.055], with 5 to 50 nM.
